From patent US20060257481A1, “Sustained release formulation and dosing schedule of leukotriene synthesis inhibitor for human therapy” (deCODE Genetics ehf., priority 2005, published 2006)
Values joined by “and” are separate entries in the source; they are usually repeats but may differ in a detail not shown here. Equal entries are not always repeated. Where two headings read alike, the source gives them in different places.

What was measured:
[1] = Pharmacokinetics of DG-031 dosing schedules, plasma concentration (studies 201 and 203); settings: for Peak concentration with trough concentration of 3 μg/mL maintained: steady-state, both half-lives
Description: Measurements of plasma DG-031 can be carried out by methods that are standard in the art. […] The DG-031 is then measured by liquid chromatography and/or mass spectrometry and the measured concentration is compared to a standard curve.
After completion of the double-blind study reported herein an open-label randomized study was conducted in an independent cohort but with same eligibility criteria and measuring several of the same biomarkers. […] Each patient was on drug for 8 days; there was no placebo group. The primary objective of this study was to determine pharmacokinetic parameters of DG-031 in three different doses, as well as to assess the pharmacokinetic/pharmacodynamic relationship between DG-031, LTB4 and MPO.
The additional phase II study was conducted to compare a 750 mg total daily dose administered in a BID or TID dosing regimen.

[2] = cited from earlier work; for Safety and tolerability: asthma patients
[3] = tested on: LTB4 production (ex vivo); test: Study DG-031-203 open label dose ranging: capacity for LTB4 production ex vivo; assay type: in vivo, human
Description: The study also collected information on the dose-related effect of DG-031 on capacity for LTB4 production (ex vivo), plasma MPO, and serum-CRP. […] The pattern observed supported a concentration dependent pharmacologic effect of DG-031 on capacity for LTB4 production measured ex vivo. The effects on LTB4 production amounted to a 30% (p=0.016) and 25% (p=0.094) reduction with the 375 mg BID and 250 mg TID doses, respectively.

[4] = Effect of a high fat meal on DG-031 pharmacokinetics; assay type: in vivo, human; settings: administration with a high fat meal
Source text: In the context of treatment of a single individual, a steady state concentration may be expected to fluctuate from day-to-day with variations in the individual's diet, level activity, state of health, co-administration of other medications, and the like. DG-031 is preferably administered with food to improve adsorption. […] In this context, the steady state concentration for an individual refers to an average concentration taken at multiple time points, to adjust for such fluctuation.

With `O=C(O)[C@@H](c1ccc(OCc2ccc3ccccc3n2)cc1)C1CCCC1` [DG-031, (R)-(+)-alpha-cyclopentyl-4-(2-quinolinylmethoxy)-Benzeneacetic acid] the “Minimum plasma concentration maintained” value ([1]; 250 mg TID) was about 7 µM, the “Peak concentrations of DG-031” value ([1]; 250 mg TID) was “about 10 μg/ml and ~28 μM” and the “Steady state Cmin plasma concentration” value ([1]; 250 mg TID) was 2000 to 3000 ng/mL. For the same compound, the “Calculated AUC24h” value ([1]; 250 mg TID vs 375 mg BID, study 203) was “somewhat higher for 250 mg TID than for 375 mg BID”, the Cmin ([1]; 375 mg BID vs 250 mg TID, study 203) was “slightly higher for the TID dosing regimen” and the “Peak concentration with trough concentration of 3 μg/mL maintained” value ([1]; BID doses) was 14 µg/mL. For the same compound, the “Peak concentration required to keep steady-state concentration above 3 μg/ml” value ([1]; BID dosing, calculated for a 2.5 hour half-life (FIG. 4)) was about 30 µg/mL, the “Peak concentration with trough concentration of 3 μg/mL maintained” value ([1]; TID doses) was 7 to 8 µg/mL and the “Peak plasma concentration required to keep steady-state concentration above 3 μg/ml” value ([1]; TID dosing, calculated for a 2.5 hour half-life) was about 11 µg/mL. For the same compound, the “Drug required with TID dosing relative to BID schedule to maintain the minimum concentration” value ([1]; in vivo) was “about 70%”, the “Share of total exposure of the fraction with the slower half-life” value ([1]; in vivo) was “about 25%” and the Tolerability ([2]; 750 mg/day, previous phase I-II human studies in asthma) was “well tolerated”. For the same compound, the Safety and tolerability ([2]; total daily dose 500 mg, greater than 45-365 days) was “safe and well tolerated”, the Safety and tolerability ([2]; total daily dose 250, 500, 750 and 1000 mg, 14 days) was “safe and well tolerated” and the Safety and tolerability ([2]; total daily doses 100, 200, 250, 500 and 1000 mg, 14-42 days) was “safe and well tolerated”. For the same compound, the LTB4 production ([3]; 250 mg TID, St. 203) was −25% (St. 203), the “Reduction of LTB4 production ex vivo” value ([3]; 250 mg TID, p=0.094) was 25% and the LTB4 production ([3]; 375 mg BID, Study 203, 2 hours, p = 0.016) was −30%. For the same compound, the “Reduction of LTB4 production ex vivo” value ([3]; 375 mg BID, p=0.016) was 30%, the LTB4 production ([3]; 375 mg QD, Study 203, 2 hours, NS) was −16% and the “Increase in AUC” value [4] was 30%. The “Increase in Cmax” value [4] was 150%, the Tmax [4] was “no effect” and the half-life [4] was “shorter half-life”.
